# Values quoted from earlier work in patent publication US7195789B2, “Non-fiber extract of psyllium with anti-tumorigenic effects and method for identifying the same” (Board of Trustees of Michigan State University, priority 2002, dated 2007).
# Key:
# connexin 43 = conditions: Na et al. 2000
# ras protein (p21^ras) = conditions: Na et al. 2000
# WB-Ha-ras cells [1] = conditions: WB-Ha-ras cell line; Na et al. 2000
# WB-Ha-ras cells [2] = conditions: WB-Ha-ras cell line; Na et al. 2000; remark: listed apart in the source
compound,measurement,setting,value
"O=C(/C=C/c1ccc(O)c(O)c1)OCCc1ccccc1 [CAPE, phenylethyl ester of caffeic acid]",expression of hyperphosphorylated Cx43,connexin 43,restored
same,protein level of p21^ras by Western blot,ras protein (p21^ras),decreased
same,restoration of GJIC,WB-Ha-ras cells [1],restored GJIC
same,inhibition of AIG,WB-Ha-ras cells [2],inhibited AIG
